In patent US6384077B1, “Highly purified EPA for treatment of schizophrenia and related disorders” (Laxdale Limited, priority 1999, dated 2002):

Columns and labels:
schizophrenic breakdown = details: 2 g/day with olanzapine, after about 4 weeks
Description: In addition to citalopram they were then given 1 g/day of ethyl-EPA. […] Another case was a young person who dropped out of college with a schizophrenic breakdown.

bipolar disorder = experiment: case reports: five patients with bipolar disorder; type: in vivo, human; details: 2 g/day after switch from fish oil
Description: This provided 1.8-3.6 g of EPA and 1.2-2.4 g of DHA per day. […] They were, however, far from completely normal. When the pure ethyl-EPA became available, they were switched from the fish oil to the pure EPA at a dose of 2 g/day in the form of four 0.5 g soft gelatin capsules. […] In particular they all noted an improvement in something which is difficult to measure by conventional psychiatric rating scales. This is a sense of inner tension or dysphoria, a state which is associated with the illness, but which may be exaggerated or changed by antipsychotic drugs to a state of confused tension, sometimes described as a sense of the brain being replaced by cotton wool, and a difficulty of thinking clearly in a straight line. […] They had not noticed this effect which being treated with the higher dose of EPA in the form of the EPA/DHA mix in fish oil.

[1] = tested on: schizophrenia, drug-induced obesity; type: in vivo, human; details: ethyl-EPA in addition to olanzapine, six months
Description: Obesity is another common side effect of antipsychotropic drugs. In this respect some of the newer drugs like olanzapine frequently seem to be even worse offenders than the typical neuroleptics. […] They preferred the olanzapine but it still left their withdrawn and unable to communicate normally with friends or family. To their distress it caused them to put on over 10 kg in weight. Their doctor decided to test ethyl-EPA in addition to olanzapine.

[2] = tested on: clozapine-induced hypersalivation; experiment: three clozapine-treated patients with hypersalivation; type: in vivo, human
Description: Clozapine is regarded as a particularly effective drug by many psychiatrists but it has a range of severe side effects. From the patient's point of view one of the most troublesome is hypersalivation. This may not sound very serious but the constant flow of large volumes of saliva is in fact very distressing for the patient and for those who are associated with the patient. The mechanism of the hypersalivation is unknown.

[3] = tested on: patients who had schizophrenia; experiment: randomised, placebo-controlled study of ethyl-EPA in clozapine-treated patients with schizophrenia (PANSS, MADRS); type: in vivo, human; details: 1 g or 2 g per day versus placebo, 12 weeks
Description: Although the case reports of the effects of ethyl-EPA are convincing and in some cases dramatic, unequivocal proof of its efficacy must come from randomised, placebo-controlled trials. We therefore set up a randomised, placebo-controlled study of EPA in 34 patients who had schizophrenia according to the criteria set out in the American Psychiatric Association's Diagnostic and Statistical Manual of Mental Disorders (4th edition, DSM-IV). All of these patients were being treated with clozapine drugs but all remained seriously ill, with schizophrenic symptoms. Like many schizophrenics, some of the patients were also depressed. All were assessed at baseline and after 12 weeks using the Positive and Negative Symptom Scale for Schizophrenia (PANSS) and the Montgomery-Asberg Depression Rating Scale (MADRS). After giving informed consent, all the patients were randomised on a double blind basis to one of three groups: placebo, or 1 g or 2 g of ethyl-EPA per day in the form of 0.5 g capsules. Placebo and EPA capsules were indistinguishable from one another in appearance. All the patients improved to some degree so all the changes are percentage improvements

schizophrenia [4] = experiment: case report: schizophrenia, fish oil switched to ethyl-EPA; type: in vivo, human
Description: This provided around 1.9 g/day of EPA and 0.6 g/day of DHA. They were not taking other antipsychotic drugs. […] However, when they did this the symptoms returned and it was concluded that they had to take around 2 g/day of EPA to remain well. When the purified ethyl-EPA became available, they were switched to 4×0.5 g capsules, also providing around 2 g/day. […] They therefore dropped the dose to 1 g/day.

dementia = experiment: case report: person with dementia; type: in vivo, human; details: 4x0.5 g capsules per day, within four weeks
Description: Dementia: A person developed dementia, probably of Alzheimer type but possibly with multi-infarct contributions because of associated cardiovascular disease. As often occurs they also became withdrawn and depressed but, unfortunately, this state was interrupted by irrational and violent outbursts, usually directed at members of their family, but also sometimes against complete strangers. They were tried on two cholinergic drugs: although these produced a small improvement in their cognitive state they did nothing for their depression, irritability and anger. They were tried on a dose of 4×0.5 g capsules of pure ethyl-EPA, two given in the morning and two in the evening. […] Their family also thought their cognition had improved but this is difficult to be certain of because of their improved mood.

schizophrenia [5] = experiment: case history: schizophrenia, E-EPA added to clozapine; type: in vivo, human; details: 2 g/day in addition to clozapine 900 mg/day
Description: This mechanism is thought to be responsible for their rapid effects on the so-called “positive” symptoms of schizophrenia (such as hallucinations, delusions and thought disorder). […] The D2 blocking action is also responsible for many of the adverse effects of these drugs, which include extrapyramidal movement disorders, excess prolactin secretion, and tardive dyskinesias. Examples of widely used drugs in this class include chlorpromazine, thioridazine, haloperidol, pimozide, flupenthixol and sulpiride.
These may include blockade of one or more of the other dopamine receptors such as D1, D3 or D4, and also usually including blockade of one or more classes of serotonin receptors. […] They may also have actions at other receptors, including histamine, glutamate and acetyl choline receptors.
The patient was treated with clozapine, eventually reaching a maximum dose of 900 mg/day.
E-EPA in a dose of 2 g/day was then administered in addition to clozapine.

depression = experiment: case report: depressed person, Hamilton Depression Rating Scale; type: in vivo, human; details: 1 g/day 96% ethyl-EPA, after about 3-4 weeks
Description: Our attention was unexpectedly drawn to the importance of highly purified EPA by our experience with a patient, a depressed women aged 35 years. […] […] […] They continued the EPA-rich oil for a further two months without any further change. […] As a result of this, and of thinking about the evidence relating to the binding of EPA to FACL-4 and presumably to other proteins, we came to the conclusion that it was important for clinical efficacy to administer EPA in a highly purified form for maximum clinical effectiveness.

[6] = tested on: attention deficit hyperactivity disorder (ADHD); experiment: case report: child with ADHD; type: in vivo, human; details: two capsules per day, after two weeks
Description: Attention deficit hyperactivity disorder (ADHD): ADHD and closely related conditions like attention deficit disorder and conduct disorders are commonly found in children. Occasionally they may be successfully treated by behaviour modification and other psychological techniques or by careful attention to diet. However, in most cases, paradoxical treatment with one of the stimulant drugs related in their action to amphetamine is required. Methylphenidate and dextroamphetamine are the commonest used. A child with serious ADHD since infancy was driving their parents to distraction. […] The parents were concerned about the long term consequences of stimulant drugs. The child was therefore tried on two capsules of pure ethyl-EPA per day. […] The child became less tense and irritable, less hyperactive, more open to reasoned discussion and enormously less disruptive both at home and school. Even when their methylphenidate was stopped, their behaviour remained improved.

clozapine-induced hypersalivation (schizophrenia [5]): considerably reduced
Structure (SMILES): CC/C=C\C/C=C\C/C=C\C/C=C\C/C=C\CCCC(=O)OCC [ethyl-EPA]
clarity of thinking (schizophrenic breakdown): thinking more clearly
clinical condition in bipolar disorder (bipolar disorder): clinical condition improved considerably
sense of dysphoria, tension and cotton-wool thinking (bipolar disorder): greatly reduced or disappeared altogether
withdrawn state [1]: gradually improved
psychiatric state [2]: substantial improvement in psychiatric state
salivation [2]: dramatically reduced the salivation to normal levels
side effects [3]: no reported side effects attributable to the E-EPA
recurrence of symptoms after dose reduction (schizophrenia [4]; 1 g/day): did not lead to a recurrence of symptoms
control of schizophrenia symptoms (schizophrenia [4]; 4x0.5 g capsules, around 2 g/day): controlled their symptoms very well
mood and irritability in dementia (dementia): remarkable improvement
effect on schizophrenic illness (schizophrenia [5]): dramatic within two weeks
Hamilton scores (depression): below 6
behaviour in ADHD [6]: substantial improvement in behaviour
